From patent US20240034761A1, “REGENERATION OF MAMMALIAN TISSUES USING SYNTHETIC IMMODULINS” (priority 2022, published 2024)
Marks after values point to notes of the source that are not given here. Square brackets hold non-standard residues; d marks the D form. Ends that are not written are not given here. Peptide text beside a SMILES is read from it.

How the values were obtained:
[1] = Plate binding of FITC-labelled heparin to immobilised biotinylated peptides; conditions: 400 ng peptide/well, 1 ug FITC-heparin, PBS; normalized to immX3 peptide binding = 100
Procedure: (§1) Effects of pH, PIP2 and size classes: Streptavidin-coated 96-well plates (G-Biosciences, St. Louis, MO) were pre-loaded with biotinylated peptides [see Example 1] at 400 ng/well, at room temperature for 60 minutes. The plate was washed with PBS buffer and then 1 ug FITC-labelled heparin or hyaluronic acid (FITC-HMW-HA) in 100 uL PBS buffer was added per well (all tests done in quadruplicate). Incubation proceeded for 90 minutes at room temperature, followed by two PBS washes. The plate was read in a standard laboratory fluorometer (488/525 nm exitation/[…]) and the counts normalized for immX3 peptide binding=100. Values statistically above background are shown in bold font. **p<0.05 versus immX3AVD.

[2] = Plate binding of FITC-labelled hyaluronic acid to immobilised biotinylated peptides; conditions: 400 ng peptide/well, 1 ug FITC-HMW-HA, PBS; normalized to immX3 peptide binding = 100
Procedure: as §1

[3] = PIP-binding membrane assay (Membrane Lipid Strips); parameters: key: —: −−− no binding; +++ strong binding; conditions: 400 ng peptide
Procedure: N-terminally biotinylated versions of the peptides listed below were used in various assays listed in the examples. For the two types of phosphatidylinositon phosphate (PIP)-binding assays, imm1-imm6 peptides were used.
In the PIP-binding membrane assay, 400 ng of each peptide was bound to Membrane Lipid Strips (Catalog # P-6002, Echelon Biosciences, Salt Lake City, UT) and developed according to the manufacturer's instructions. Binding to PIPs was as follows (−−− no binding; +++ strong binding): […]

[4] = system: THP1-Dual monocyte reporter cell line; experiment: THP1-Dual myeloid cell differentiation assay (PMA protocol); assay type: cell-based, human; conditions: PMA 24 h, then peptide 0.33 uM or 0.66 uM 24 h; for CD169+ (AU) / Clec12A(AU): relative to immX3AVD = 100; for CCL22: culture supernatant
Procedure: (§2) Mammalian cell differentiation assays employed the THP1-Dual monocyte reporter cell line (Invivogen Inc, San Diego, CA) seeded at 2×10e5 cells per well in 96-well plates and cultured at 37 degrees C. in RPMI-1640 growth medium plus 10% fetal bovine serum and 1% penicillin/streptomycin. Cells were subsequently treated for 24 hours with 100 ng/ml Phorbol 12-myristate 13-acetate (PMA protocol; Cayman Chemical Company, Ann Arbor, MI). Peptide (0.33 uM or 0.66 uM, as indicated) was then added, and incubation continued for an additional 24 hours. Culture supernatants were assayed for CCL22. Plates with adherent cells were washed with PBS and assayed for immunoreactivity of surface markers such as CD169, Clec9a or Clec12a using fuorescent tag- or biotin-labeled anti-human antibodies purchased from Miltenyi Biotec (Auburn, CA) and the secondary detection reagent recommended by the manufacturer.

[5] = system: HFF-1 human fibroblast cell line; experiment: Collagen stimulating activity in HFF-1 dermal fibroblasts (Collagen-1 ELISA); assay type: cell-based; conditions: peptide 2 uM, 72 hour; control (buffer) set to 100
Procedure: Immodulin peptides have potential untility in the field of cosmetics. HFF-1 human fibroblast cell line was obtained from the American Type Culture Collection (ATCC). Cells were grown in a T-75 flask in DMEM Medium containing 10% fetal bovine serum and penicillin-streptomycin at 37° C. in a humidified, 5% CO2 incubator. Cells ([…], 2,000 cells/well) were plated in a 96-well plate and incubated overnight at 37° C. in a humidified, 5% CO2 incubator. Next day, […] of compounds were added (quadruplicate wells). After 72 hour incubation with the compound, supernatants were collected for Collagen-1 ELISA assay and cell viability was measured in a luminometer after the addition of […] CellTiterGlo reagent (Promega Inc, Madison, WI) as recommended by the manufacturer. Collagen stimulating activity of immodulin peptides in HFF-1 dermal fibroblasts: Peptides were added to cells at 2 uM. Collagen-1A1 (COL1) immunoreactivity was measured in the supernatants of cultured cells by ELISA using a rabbit monoclonal anti-COL1 primary antibody (Abcam, Cambridge, MA). Control (buffer) value of immunoreactivity was set to 100.

[6] = system: C2C12 myoblastic cell line; experiment: C2C12 myoblast differentiation, creatine kinase; assay type: cell-based; conditions: 0.66 uM peptide, 96 hours; helper none; relative to immX3AVD = 100
Procedure: Differentiation assays employed the C2C12 myoblastic cell line (ATCC, Manassas, VA) seeded at 2×10e5 cells per well in 96-well plates and cultured at 37 degrees C. in DMEM growth medium plus 10% fetal bovine serum and 1% penicillin/streptomycin. For differentiation, 10% fetal bovine serum was replaced with 2% horse serum. 0.66 uM peptide was then added, and incubation continued for an additional 96 hours. Plates with adherent cells were washed with PBS, lysed with Lytic-M buffer (Sigma Chemical Company, St. Louis, MO) and the lysates were assayed for creatine kinase using a kit purchased from Bioassay Systems (Cat. #ECPK-100, Hayward, CA). Effects were visually confirmed with microscopy tracking myotube formation. Results were expressed as units per milliliter relative to the control immX3AVD peptide, and p values were also calculated and shown relative to control immX3AVD peptide (** p<0.05 versus immX3AVD control; avg±SD).

[7] = system: Primary human T-cells pre-selected for recognizing GAD65 peptide antigen; experiment: GAD65-specific primary T-cell differentiation on peptide-treated THP1-Dual cells; assay type: cell-based; conditions: peptide 0.66 uM, GAD65 1 ug/ml; for FoxP3 (AU): cell extracts, immX3AVD = 100
Procedure: as §2
Another non-myeloid lineage was also tested. Primary human T-cells pre-selected for recognizing GAD65 peptide antigen, and the peptide antigen itself were purchased from Cellero LLC (Memphis, TN). THP1-Dual cells were treated with both GAD65 peptide antigen (1 ug/ml) and immodulin peptide (0.66 uM) using the protocol described in Example 2. After completion of the myeloid cell differentiation step (24 hours), supernatants were collected and 100,000 primary T-cells were added to each well in RPMI-1640 medium (100 uL per well). Plates were incubated for an additional 96 hours and cell extracts were prepared using CellLytic-M reagent (Sigma Chemical Co., St Louis, MO). Supernatants were assayed for CCL22, IL-10 and TGFbeta, and cell extracts assayed for FoxP3, all by ELISA using reagents from R&D Systems, Minneapolis, MN. The results are shown in the table below (**p<0.05 vs immX3AVD, set to=100): […]

[8] = Second binding experiment: FITC-HMW-HA binding with holotransferrin, pH and cold competitors; parameters: key to FITC-HMW-HA binding, +cold LMW-HA / FITC-HMW-HA binding, +cold HMW-HA: fluorescence counts normalized to peptide binding control = 100; conditions: holotransferrin 10 ug/well; for FITC-HMW-HA binding, +cold HMW-HA: HMW-HA 10 ug/well; for FITC-HMW-HA binding, +cold LMW-HA: LMW-HA hexamer 10 ug/well; for FITC-HMW-HA binding, +cold PIP2: excess PIP2 500 ng/well
Procedure: as §1
A second binding experiment was done as above, but using either 6 mM sodium phosphate buffer pH 7.4 or sodium citrate buffer pH 5.2 in the presence of FITC-HMW-HA (1.5 ug/well), holotransferrin (10 ug/well) and excess PIP2 (500 ng/well), LMW-HA (hexamer; 10 ug/well) or HMW-HA (10 ug/well). **p<0.05 versus peptide binding control (=100);

## CSCC[C@H](NC(=O)[C@H](CCCCN)NC(=O)[C@H](CS)NC(=O)[C@H](CCC(N)=O)NC(=O)[C@H](CCCCN)NC(=O)[C@H](CC(C)C)NC(=O)[C@H](CC(N)=O)NC(=O)[C@H](Cc1ccc(O)cc1)NC(=O)[C@H](CC(C)C)NC(=O)CNC(=O)[C@H](Cc1c[nH]cn1)NC(=O)[C@@H](N)CCCCN)C(=O)N[C@@H](CO)C(=O)N[C@@H](CC(C)C)C(=O)N[C@@H](CC(N)=O)C(=O)NCC(=O)N[C@@H](CCC(N)=O)C(=O)N[C@@H](CCCNC(=N)N)C(=O)NCC(=O)N[C@@H](CCC(=O)O)C(=O)N[C@@H](CS)C(=O)N[C@@H](Cc1c[nH]c2ccccc12)C(=O)O [imm2]
[1]
  Heparin binding (fluorescence counts): 27.4 ± 22.9
[2]
  Hyaluronate binding (fluorescence counts): 3.1 ± 9.8
[3]
  Binding to Phosphatidylinositol: —
  Binding to PtdIns(3,4,5)P [PIP3]: —
  Binding to PtdIns(4)P [PIP1]: —
  Binding to PtdIns(4,5)P [PIP2]: —
[4]
  CD169+ (AU): 3.0 ± 0.5 AU

## N=C(N)NCCC[C@H](NC(=O)[C@H](CCCNC(=N)N)NC(=O)[C@H](CCC(N)=O)NC(=O)CNC(=O)[C@H](CCC(N)=O)NC(=O)[C@H](CO)NC(=O)[C@H](CO)NC(=O)[C@H](CCCNC(=N)N)NC(=O)[C@H](CS)NC(=O)[C@H](CCC(N)=O)NC(=O)[C@H](CCCNC(=N)N)NC(=O)[C@H](CCCCN)NC(=O)[C@H](CCCNC(=N)N)NC(=O)[C@H](Cc1ccc(O)cc1)NC(=O)[C@H](Cc1ccccc1)NC(=O)CNC(=O)[C@H](CCCNC(=N)N)NC(=O)[C@@H](N)Cc1c[nH]cn1)C(=O)NCC(=O)N1CCC[C@H]1C(=O)N[C@@H](CS)C(=O)N[C@@H](Cc1c[nH]c2ccccc12)C(=O)O [imm6] (H-HRGFYRKRQCRSSQGQRRGPCW-OH)
[1]
  Heparin binding (fluorescence counts): 97.2 ± 17.3
[2]
  Hyaluronate binding (fluorescence counts): 44.9 ± 14.1**
[3]
  Binding to Phosphatidylinositol: —
  Binding to PtdIns(3,4,5)P [PIP3]: —
  Binding to PtdIns(4)P [PIP1]: —
[4]
  CD169+ (AU): 19.9 ± 2.3 AU

## AFNSYELGSKGFYKKKQCRPSKGRKRGFCW [imm3K9]
[5]
  COL1 (Collagen-1A1 immunoreactivity in supernatant): 155**

## AFNSYELGSKGFYKKKQCRPSKGRKRGFCWAVDKY [imm3K9c]
[5]
  COL1 (Collagen-1A1 immunoreactivity in supernatant): 158**

## AFNSYELGSKKGFYKKKQCRPSKGRKRGFCW [imm3K9.1]
[5]
  COL1 (Collagen-1A1 immunoreactivity in supernatant): 156**

## FNSYELGSLKKGFYKKKQCRPSKGRKRGFCW [imm3K8]
[5]
  COL1 (Collagen-1A1 immunoreactivity in supernatant): 98

## KKGFYKKKQCRPSKGRKRGFCW(dA)(dV)(dD) (KKGFYKKKQCRPSKGRKRGFCW[dA][dV][dD]; cysteine pairing not given here) [immX3dAdVdD]
[1]
  Heparin binding (fluorescence counts): 55.5 ± 5.7**
[6]
  Creatine Kinase Act.: 132.8 ± 5.2** units per milliliter
[2]
  Hyaluronate binding (fluorescence counts): 104.2 ± 14.7
[4]
  CD169+ (AU): 183.3 ± 6.4 AU
  Clec12A(AU): 106.6 ± 5.2 AU

## KKGFYKKKQCRPSKGRKRGFCW(dS)(dV)(dD) (KKGFYKKKQCRPSKGRKRGFCW[dS][dV][dD]; cysteine pairing not given here) [immX3dSdVdD]
[7]
  FoxP3 (AU): 176.6 ± 8.0** AU
[7]; supernatant
  CCL22: 77.8 ± 2.0 pg/mL
  IL-10: 1534 ± 176.4 pg/mL
  TGFb: 87.6 ± 10.7 pg/mL
[6]
  Creatine Kinase Act.: 155.6 ± 14.1** units per milliliter
[4]
  CD169+ (AU): 145.7 ± 9.3 AU

## RKGFYKRKQCKPSRGRKRGICWAVD [immX5AVD]
[8]; pH 5.2
  FITC-HMW-HA binding, CONTROL: 66.6 ± 7.2**
  FITC-HMW-HA binding, +cold HMW-HA: 9.6 ± 6.5**
  FITC-HMW-HA binding, +cold LMW-HA: 76.8 ± 5.9
  FITC-HMW-HA binding, +cold PIP2: 52.8 ± 4.0**
[8]; pH 7.4
  FITC-HMW-HA binding, +cold HMW-HA: 22.6 ± 8.8**
  FITC-HMW-HA binding, +cold LMW-HA: 94.9 ± 11.4
  FITC-HMW-HA binding, +cold PIP2: 53.7 ± 2.1**
[8]; pH 7.4, peptide binding control = 100
  FITC-HMW-HA binding, CONTROL: 100.0 ± 7.6
[7]
  FoxP3 (AU): 14.8 ± 4.3** AU
[7]; supernatant
  CCL22 (pg/ml): 58.7 ± 2.7** pg/ml
  IL-10 (pg/ml): 870 ± 8.2** pg/ml
  TGFb (pg/ml): 52.8 ± 7.4** pg/ml
[1]
  Heparin binding (fluorescence counts): 68.7 ± 26.2
[2]
  Hyaluronate binding (fluorescence counts): 113.9 ± 15.7
[4]
  CD169+ (AU): 100.9 ± 3.5 AU
  CCL22: 228.6 ± 8.1 pg/mL

## RNGNFHPKQCHPALDGQRGKCWAVD [immX4AVD]
[1]
  Heparin binding (fluorescence counts): 7.3 ± 17.1
[2]
  Hyaluronate binding (fluorescence counts): 61.1 ± 34.1
[4]
  CD169+ (AU): 1.0 ± 0.3 AU

## SLNPEWNETKGFYKKKQCRPSKGRKRGFCW(dA)(dV)(dD) (SLNPEWNETKGFYKKKQCRPSKGRKRGFCW[dA][dV][dD]; cysteine pairing not given here) [immX3K1dAdVdD]
[1]
  Heparin binding (fluorescence counts): 56.0 ± 7.3**
[2]
  Hyaluronate binding (fluorescence counts): 101.9 ± 16.4
[4]
  CD169+ (AU): 249.3 ± 13.9 AU
  Clec12A(AU): 321.9 ± 25.6 AU
  CCL22: 135.8 ± 24.2 pg/mL
